{
  "source": "patent US20080171083A1",
  "about": "“Pharmaceutical Compositions Comprising an Amphiphilic Starch” (VECTURE LIMITED, priority 2004, published 2008)",
  "origin": "cited, not measured here",
  "note": "Where a name gives a salt, the structure may show the parent alone.",
  "data": [
    {"conditions": "class-1 high solubility, class-2 highly permeable, low solubility, class-3 low permeability, class-4 low solubility", "values": [
      {"molecule": "COc1ccccc1OCCNCC(O)COc1cccc2[nH]c3ccccc3c12", "note": "(stereo not shown) [Carvedilol]", "BCS class (solubility / permeability)": "class-4"},
      {"molecule": "NCC1(CC(=O)O)CCCCC1", "note": "[Gabapentin]", "BCS class (solubility / permeability)": "class-3"},
      {"molecule": "COc1ccc2c(c1)c(CC(=O)O)c(C)n2C(=O)c1ccc(Cl)cc1", "note": "[Indomethacin]", "BCS class (solubility / permeability)": "class-2"},
      {"molecule": "CC(C)NCC(O)COc1cccc2ccccc12", "note": "(stereo not shown) [propranolol hydrochloride]", "BCS class (solubility / permeability)": "class-1"}
    ]}
  ]
}
